Measured values published in patent US11753408B2, “Compounds and method for blocking transmission of malarial parasite” (The United States of America, as represented by the …, priority 2016, dated 2023).
Where two headings read alike, the source gives them in different places.

What was measured:
[1] = tested on: Stage III-V gametocytes (blood stage P. falciparum parasites); assay: In vitro drug activity on gametocytes (AlamarBlue viability assay); type: cell-based, Plasmodium falciparum; details: for EC50: read-out: Gametocyte EC50
Experimental: Cell culture. Asexual parasites of P. falciparum strain 3D7 were cultured as described previously [Trager W, et al., Journal of Parasitology 2005, 91: 484-486], Stage III-V gametocytes were selected and enriched with 3-day treatment with 50 mM N-acetylglucosamine (NAG) and the following Percoll density gradient centrifugation after gametocyte production [Tanaka T Q, et al., Molecular and Biochemical Parasitology, 2011, 111: 160-163], Gametocytes of HB3 and Dd2 strains were produced and then set up for assay in a similar process. HepG2 cells (ATCC, cat. no. 77400) were cultured in 175-cm^2 tissue culture flasks with 30 ml growth medium at 37° C. in a 5% CO2 humidified atmosphere. Growth medium was made with Dulbecco's Modified Eagle Medium with 10% fetal bovine serum (FBS). Growth medium was replaced every other day and cells were passed at 75% confluence.
Compound screening experiments were performed as previously described [Tanaka T Q et al., Molecular and Biochemical Parasitology, 2013, 3188: 20-25], Briefly, 2.5 μl/well incomplete medium was dispensed into each well of 1,536-well plates using the Multidrop Combi followed by 23 nl compound transferring using the NX-TR Pintool (WAKO Scientific Solutions, San Diego, Calif.). 2.5 μl/well of gametocytes was dispensed with a seeding density of 20,000 cells/well using the Multidrop Combi. The assay plates were incubated for 72 h at 37° C. with 5% CO2. After addition of 5 μl/well of 2× AlamarBlue dye (Life Technologies, cat. no. DALI 100), the plates were incubated for 24 h at 37° C. with 5% CO2 and were read in a fluorescence detection mode (Ex=525 nm, Em=598 nm) on a ViewLux plate reader (PerkinElmer).
Stage III-V gametocytes (blood stage P. falciparum parasites) were enriched with treatment with 50 mM N-acetylglucosamine (NAG) and Percoll density gradient centrifugation as described previously^1. Briefly, 2.5 μl/well incomplete medium was dispensed into each well of 1,536-well plates using the Multidrop Combi followed by 23 nl compound transfer using the NX-TR Pintool (WAKO Scientific Solutions, San Diego, Calif.). Then, 2.5 μl/well of gametocytes was dispensed with a seeding density of 20,000 cells/well using the Multidrop Combi. The assay plates were incubated for 72 h at 37° C. with 5% CO2. After addition of 5 μl/well of 2× AlamarBlue dye (Life Technologies, cat. no. DALI 100), the plates were incubated for 24 h at 37° C. with 5% CO2 and then were read in a fluorescence detection mode (Ex=525 nm, Em=598 nm) on a ViewLux plate reader (PerkinElmer).

Solubility at pH 7.4 = type: physicochemical
[2] = tested on: Asexual parasites of P. falciparum strain 3D7; assay: In vitro drug activity on asexual parasites (SYBR Green assay); type: cell-based, Plasmodium falciparum
Method in brief: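 SYBR Green I fluorescence (ex 490, em 520 nm) was read after freeze-thaw lysis and 30 min staining at room temperature. Before that, drug-treated cultures (0.5% parasitemia, 2% hematocrit, DMSO ≤0.5%) were incubated 72 h, in duplicate.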

[3] = Microsomal stability (rat); type: in vitro ADME; details: rat microsomes
mTOR = mTOR (Homo sapiens, UniProt P42345); assay: mTOR activity (no method described); type: biochemical
[4] = P. falciparum stage III-V gametocytes, 72 h incubation, AlamarBlue
[5] = P. falciparum 3D7 asexual parasites, 72 h, SYBR Green

Structure (SMILES): Cc1ccc(C#N)cc1-n1c(=O)ccc2cnc3ccc(-c4ccc(CN(C)C)cc4)cc3c21 [Compound 7]
- EC50 [1, 4]: 25.1 nM
- Sol @ pH 7.4 (ug/mL) (Solubility at pH 7.4): >66.00 ug/mL
- EC50 [2, 5]: 13.1 nM

Structure (SMILES): Cc1c(C#N)cccc1-n1c(=O)ccc2cnc3ccc(-c4ccc(CN(C)C)cc4)cc3c21 [Compound 10]
- EC50 [1, 4]: 469 nM
- Sol @ pH 7.4 (ug/mL) (Solubility at pH 7.4): >66 ug/mL
- Microsomal Stability (rat) T1/2 [3]: 18 min
- EC50 [2, 5]: 72.2 nM

Structure (SMILES): COc1ccc(C#N)cc1-n1c(=O)ccc2cnc3ccc(-c4ccc(F)cc4)cc3c21 [Compound 13]
- EC50 [1, 4]: 135 nM
- Sol @ pH 7.4 (ug/mL) (Solubility at pH 7.4): 0 ug/mL
- EC50 [2, 5]: 80.4 nM

Structure (SMILES): N#Cc1ccc(-n2c(=O)ccc3cnc4ccc(-c5ccc(N)nc5)cc4c32)cc1 [Compound 22]
- EC50 [1, 4]: 115 nM
- Sol @ pH 7.4 (ug/mL) (Solubility at pH 7.4): <1.0 ug/mL
- Microsomal Stability (rat) T1/2 [3]: >30.0 min
- EC50 [2, 5]: 34.6 nM

Structure (SMILES): CS(=O)(=O)c1ccc(-n2c(=O)ccc3cnc4ccc(-c5ccc(Cl)c(O)c5)cc4c32)cc1 [Compound 26]
- EC50 [1, 4]: 178 nM
- Sol @ pH 7.4 (ug/mL) (Solubility at pH 7.4): 1.2 ug/mL
- Microsomal Stability (rat) T1/2 [3]: >30.0 min
- EC50 [2, 5]: 37.8 nM

Structure (SMILES): CS(=O)(=O)c1ccc(-n2c(=O)ccc3cnc4ccc(-c5ccc(F)cc5)cc4c32)cc1 [Compound 29]
- EC50 [1, 4]: 88.5 nM
- Sol @ pH 7.4 (ug/mL) (Solubility at pH 7.4): <1.0 ug/mL
- Microsomal Stability (rat) T1/2 [3]: >30.0 min
- EC50 [2, 5]: 19.8 nM

Structure (SMILES): CCN(CC)S(=O)(=O)c1ccc(-n2c(=O)ccc3cnc4ccc(-c5ccc(Cl)cc5)cc4c32)cc1 [Compound 39]
- EC50 [1, 4]: 426 nM
- Sol @ pH 7.4 (ug/mL) (Solubility at pH 7.4): <1.0 ug/mL
- Microsomal Stability (rat) T1/2 [3]: 1.7 min
- EC50 [2, 5]: 414 nM

Structure (SMILES): CCNS(=O)(=O)c1ccc(-n2c(=O)ccc3cnc4ccc(-c5ccc(Cl)cc5)cc4c32)cc1 [Compound 41]
- EC50 [1, 4]: 89.4 nM
- Sol @ pH 7.4 (ug/mL) (Solubility at pH 7.4): <1.0 ug/mL
- Microsomal Stability (rat) T1/2 [3]: 6.3 min
- EC50 [2, 5]: 23.1 nM

Structure (SMILES): O=c1ccc2cnc3ccc(-c4ccc(Cl)cc4)cc3c2n1-c1ccc(S(=O)(=O)NC2CC2)cc1 [Compound 46]
- EC50 [1, 4]: 260 nM
- Sol @ pH 7.4 (ug/mL) (Solubility at pH 7.4): <1.0 ug/mL
- Microsomal Stability (rat) T1/2 [3]: 8.3 min
- EC50 [2, 5]: 62.5 nM

Structure (SMILES): CN(C)Cc1ccc(-c2ccc3ncc4ccc(=O)n(-c5ccc([S+](C)[O-])cc5)c4c3c2)cc1 (centres unmarked) [Compound 54]
- EC50 [1, 4]: 393 nM
- Sol @ pH 7.4 (ug/mL) (Solubility at pH 7.4): >69.00 ug/mL
- Microsomal Stability (rat) T1/2 [3]: 51.7 min
- EC50 [2, 5]: 146 nM

Structure (SMILES): CN(C)Cc1ccc(-c2ccc3ncc4ccc(=O)n(-c5ccc(S(C)(=O)=O)c(N6CCOCC6)c5)c4c3c2)cc1 [Compound 62]
- EC50 [1, 4]: 1320 nM
- Sol @ pH 7.4 (ug/mL) (Solubility at pH 7.4): >84.00 ug/mL
- Microsomal Stability (rat) T1/2 [3]: >30.00 min
- EC50 [2, 5]: 558 nM

Structure (SMILES): Nc1ccc(-c2ccc3ncc4ccc(=O)n(-c5ccc(S(N)(=O)=O)cc5)c4c3c2)cn1 [Compound 78]
- EC50 [1, 4]: 11.6 nM
- Sol @ pH 7.4 (ug/mL) (Solubility at pH 7.4): <1.0 ug/mL
- Microsomal Stability (rat) T1/2 [3]: >30.0 min
- EC50 [2, 5]: 6.12 nM

Structure (SMILES): O=C(c1ccc(-n2c(=O)ccc3cnc4ccc(-c5ccccc5)cc4c32)cc1)N1CCOCC1 [Compound 125]
- EC50 [1]: 39.8 nM
- mTOR (mTOR): 0.5061 µM
- EC50 [2]: 8.08 nM

Structure (SMILES): O=C(c1ccc(-n2c(=O)ccc3cnc4ccc(-c5ccc(Cl)cc5)cc4c32)c(Cl)c1)N1CCOCC1 [Compound 159]
- EC50 [1]: 320 nM
- mTOR (mTOR): 3.523 µM
- EC50 [2]: 91.6 nM

Structure (SMILES): NC1(c2ccc(-c3ccc4ncc5ccc(=O)n(-c6ccc(C(=O)N7CCOCC7)cc6)c5c4c3)cc2)CC1 [Compound 178]
- EC50 [1]: 918 nM
- mTOR (mTOR): 5.312 µM
- EC50 [2]: 445 nM

Structure (SMILES): CN(C)CCc1ccc(-c2ccc3ncc4ccc(=O)n(-c5ccc(C(=O)N6CCOCC6)cc5)c4c3c2)cc1 [Compound 186]
- EC50 [1]: 573 nM
- mTOR (mTOR): 12.44 µM
- EC50 [2]: 207 nM

Structure (SMILES): NC(=O)c1cccc(-n2c(=O)ccc3cnc4ccc(-c5ccc(N)nc5)cc4c32)c1 [Compound 333]
- EC50 [1]: 411 nM
- mTOR (mTOR): 0.2135 µM
- EC50 [2]: 239 nM

Structure (SMILES): CN1Cc2cc(-n3c(=O)ccc4cnc5ccc(-c6ccc(Cl)cc6)cc5c43)ccc2C1=O [Compound 341]
- EC50 [1, 4]: 83 nM
- Sol @ pH 7.4 (ug/mL) (Solubility at pH 7.4): <1.0 ug/mL
- Microsomal Stability (rat) T1/2 [3]: 12.4 min
- EC50 [2, 5]: 69.1 nM

Structure (SMILES): COC(=O)CN1Cc2cc(-n3c(=O)ccc4cnc5ccc(-c6ccc(Cl)cc6)cc5c43)ccc2C1=O [Compound 345]
- EC50 [1, 4]: 3830 nM
- Microsomal Stability (rat) T1/2 [3]: <1.0 min

Structure (SMILES): CN(C)Cc1ccc(-c2ccc3ncc4ccc(=O)n(-c5ccc6c(c5)CC(=O)N6)c4c3c2)cc1 [Compound 350]
- EC50 [1, 4]: 1000 nM
- Sol @ pH 7.4 (ug/mL) (Solubility at pH 7.4): >68.0 ug/mL
- EC50 [2, 5]: 546 nM

Structure (SMILES): O=C1c2ccc(-n3c(=O)ccc4cnc5ccc(-c6ccc(Cl)cc6)cc5c43)cc2CN1C1CC1 [Compound 353]
- EC50 [1, 4]: 2510 nM
- Sol @ pH 7.4 (ug/mL) (Solubility at pH 7.4): 0 ug/mL
- Microsomal Stability (rat) T1/2 [3]: >30.0 min
- EC50 [2, 5]: 589 nM

Structure (SMILES): CN(C)Cc1ccc(-c2ccc3ncc4ccc(=O)n(-c5ccc6c(c5)CN(CC(=O)O)C6=O)c4c3c2)cc1 [Compound 355]
- EC50 [1, 4]: 28800 nM
- Sol @ pH 7.4 (ug/mL) (Solubility at pH 7.4): >77.0 ug/mL
- Microsomal Stability (rat) T1/2 [3]: >30.0 min
- EC50 [2, 5]: 2020 nM

Structure (SMILES): O=C1CCc2cc(-n3c(=O)ccc4cnc5ccc(-c6ccc(Cl)cc6)cc5c43)ccc2N1 [Compound 356]
- EC50 [1, 4]: 65.5 nM
- Sol @ pH 7.4 (ug/mL) (Solubility at pH 7.4): <0.10 ug/mL
- Microsomal Stability (rat) T1/2 [3]: >30.00 min
- EC50 [2, 5]: 25 nM

Structure (SMILES): CN1C(=O)CCc2cc(-n3c(=O)ccc4cnc5ccc(-c6ccc(Cl)cc6)cc5c43)ccc21 [Compound 359]
- EC50 [1, 4]: 130 nM
- Sol @ pH 7.4 (ug/mL) (Solubility at pH 7.4): 0.06 ug/mL
- Microsomal Stability (rat) T1/2 [3]: 14.9 min
- EC50 [2, 5]: 23.4 nM

Structure (SMILES): O=C1NCCc2cc(-n3c(=O)ccc4cnc5ccc(-c6ccc(Cl)cc6)cc5c43)ccc21 [Compound 367]
- EC50 [1, 4]: 105 nM
- Sol @ pH 7.4 (ug/mL) (Solubility at pH 7.4): 0 ug/mL
- Microsomal Stability (rat) T1/2 [3]: 12.8 min
- EC50 [2, 5]: 29 nM

Structure (SMILES): O=C1Cc2ccc(-n3c(=O)ccc4cnc5ccc(-c6ccc(Cl)cc6)cc5c43)cc2N1 [Compound 376]
- EC50 [1, 4]: 199 nM
- Sol @ pH 7.4 (ug/mL) (Solubility at pH 7.4): 0 ug/mL
- EC50 [2, 5]: 115 nM

Structure (SMILES): Nc1ccc(-c2ccc3ncc4ccc(=O)n(-c5ccc6c(c5)CCC(=O)N6)c4c3c2)cn1 [Compound 391]
- EC50 [1, 4]: 56.3 nM
- Sol @ pH 7.4 (ug/mL) (Solubility at pH 7.4): 10 ug/mL
- Microsomal Stability (rat) T1/2 [3]: >30.00 min
- EC50 [2, 5]: 12.3 nM

Structure (SMILES): N#Cc1ccc(-n2c(=O)[nH]c3cnc4ccc(-c5ccc(Cl)cc5)cc4c32)cc1 [Compound 434]
- Gametocyte EC50 [1]: Inactive
- Sol @ pH 7.4 (Solubility at pH 7.4): <1.0 ug/mL
- Microsomal Stability (rat) T1/2 [3]: 11.3 min
- EC50 [2]: 45000 nM
